Data published in US20070265451A1, “Process for the preparation of oxazolidinones and method of use thereof” (Board of Trustees of Michigan State University, priority 2001, published 2007).
In brackets after ≈: the same amount, converted by molar mass.

test system: Staphylococcus aureus 29213; test: Broth microdilution MIC, Staphylococcus aureus ATCC 29213; format: cell-based; details: Staphylococcus aureus, ATCC29212, Table 1; SA, strain ATCC 29212; read-out: MIC90-100 SA ATCC 29212
Description: (§1) See, NCCLS document M7-A5. Methods for Dilution Antimicrobial Susceptibility Tests for Bacteria That Grow Aerobically; Approved Standard-Fifth Edition. Volume 20, Number 2. January 2000, (ISBN 1-56238-394-9) and Lorian V. Antibiotics. Laboratory Medicine. 4th ed. Baltimore: Williams and Wilkins, pp. 52-111 (1996). For subsequent testing, the following strains have been used: Staphylococcus aureus NRS4 (992; HIP5836; New Jersey) (Smith et al., New Engl. J. Med. 340: 493-501 (1999); Tenover et al., J. Clin. Microbiol. 36: 1020-1027 (1998)), Staphylococcus aureus NRS3 (963sm; HIP5827; Michigan) (Smith et al., ibid.; Tenover et al., ibid.), Staphylococcus aureus NRS103 (Becker) (Karakawa and Vann, Sem. Infect. Dis. 4: 285 (1982), Staphylococcus aureus NRS102 (Reynolds) Karakawa and Vann, ibid; McMurray et al., JID 162: 759-762 (1990)), Staphylococcus epidermidis NRS101 (ATCC 35984), Streptococcus pneumoniae (ATCC 49619), Enterococcus faecalis (ATCC 51299), and Staphylococcus aureus (ATCC 43300.
(§2) Stock cultures of these strains were obtained by seeding colonies from overnight streak plates (Tryptic Soy Agar II (TSAII) and 5% sheep's blood (SB) agar plates: Becton Dickinson, CA#2211261) into sterile Mueller-Hinton Broth (MHB)(Becton Dickinson, CA#211443) and growing the suspensions to mid-late log phase in 13 mL screw-cap tubes. Glycerol (Sigma, CA#G-6279) was sterilized by autoclaving for 15 minutes at 121° C. in 6 mL volumes, and then stored at 2-8° C. This was diluted to 20% in dH2O, and then added 1:1 (250 μL:250 μL, 10% final glycerol concentration) to the logarithmically growing bacterial suspension of each strain. Tubes were frozen and stored at −70° C. Purity of the stock cultures was tested by thawing one tube of each strain in a water bath at 37° C. and plating them on TSAII with 5% SB. Plates were incubated overnight at 37° C. and colonies were examined for morphology. Growth curves and approximate CFU/mL were also obtained.
(§3) High purity substituted oxazolidinones prepared according to the method of the present invention and a ZYVOX standard (ZYVOX is a trade name for linezolid available from Pharmacia Corporation) were provided by Synthon Corporation, Monmouth Junction, N.J. Compounds were dissolved at 10 mg/mL in DMSO, as after a dilution of approx. 39.0 to reach the desired final starting concentration of 256 ug/ml, the concentration of DMSO is approximately 2.5%. Compounds were then stored at room temperature (25° C.) in the dark.
(§4) Antimicrobial susceptibility screening was as follows. All compounds were initially screened for activity in duplicate at 256 μg/mL (2.5% DMSO), including ZYVOX, the positive control for antimicrobial activity. A single well of bacterially inoculated 2.5% DMSO served as a positive control for bacterial growth, while a well of DMSO inoculated with of 50 μL of sterile 0.9% saline served as a negative growth control. Controls were prepared on every microplate, so that 46 was the maximum number of compounds that were screened per plate. Broth was pipetted into sterile microcentrifuge tubes, to which the compounds were then added (1:19.53 dilution or 2× final concentration). Each tube was vortexed, and 50 μL was immediately transferred to the microplate wells for each strain. Solubility was assessed by visual observation. MB (medium broth solubility) was recorded if the solution appeared only slightly cloudy. LB (low broth solubility) was recorded if the solution was extremely cloudy, and especially if larger, clumpy precipitates formed. Bacteria were grown as described above, although absorbance was measured at 650 nm and bacteria were diluted to an initial OD of 0.12-0.15. Bacteria were then further diluted 1:100 with 0.9% sterile saline. Within 15 minutes of this final dilution, 50 μL of this suspension was added to each well for a final volume of […], and a final bacterial concentration of 1×10^5 CFU/mL (except for the negative control well). Plates were grown as above and all observations were recorded. […]

Question: How did the MIC90 turn out when O=C1O[C@@H](COSc2ccc([N+](=O)[O-])cc2)CN1c1ccc([N+](=O)[O-])cc1 [Compound 1808] was run?
Answer: The MIC90 was 4 to 8 µg/mL (≈ 10.2 to 20.4 µM).

Question: Which MIC90 does the source give for O=C(OC[C@H]1CN(c2ccc([N+](=O)[O-])cc2)C(=O)O1)Oc1ccc([N+](=O)[O-])cc1 [Compound 1809] here?
Answer: The MIC90 was 4 to 8 µg/mL (≈ 9.92 to 19.8 µM).

Question: How did the MIC90 turn out when O=C1O[C@H](CNSc2ccc([N+](=O)[O-])cc2)CN1c1ccc([N+](=O)[O-])cc1 [Compound 2278] was run?
Answer: Its MIC90 is 4 µg/mL (≈ 10.2 µM).

same assay, conditions: Staphylococcus aureus, ATCC29213, Table 2; read-out: MIC(90-100) SA-ATCC 29213

Question: For O=C1O[C@@H](COSc2ccc([N+](=O)[O-])cc2)CN1c1ccc([N+](=O)[O-])cc1 [Compound 1808], which MIC is on record?
Answer: Its MIC is 8 µg/mL (≈ 20.4 µM).

Question: For O=C(OC[C@H]1CN(c2ccc([N+](=O)[O-])cc2)C(=O)O1)Oc1ccc([N+](=O)[O-])cc1 [Compound 1809], which MIC is on record?
Answer: The MIC was 8 µg/mL (≈ 19.8 µM).

test system: Enterococcus faecalis 29212; test: Broth microdilution MIC, Enterococcus faecalis ATCC 29212; format: cell-based; details: Enterococcus faecalis, ATCC29212, Table 2; read-out: MIC(90-100) EF-ATCC 29212

Question: Which MIC does the source give for O=C1O[C@@H](COSc2ccc([N+](=O)[O-])cc2)CN1c1ccc([N+](=O)[O-])cc1 [Compound 1808] here?
Answer: Its MIC is 2 µg/mL (≈ 5.11 µM).

Question: With O=C(OC[C@H]1CN(c2ccc([N+](=O)[O-])cc2)C(=O)O1)Oc1ccc([N+](=O)[O-])cc1 [Compound 1809] as the compound, how does the MIC read?
Answer: Its MIC is 4 µg/mL (≈ 9.92 µM).

same assay, conditions: Enterococcus faecalis, ATCC29213, Table 1; EF, strain printed ATCC 29213; read-out: MIC90-100 EF ATCC 29213

Question: For O=C1O[C@@H](COSc2ccc([N+](=O)[O-])cc2)CN1c1ccc([N+](=O)[O-])cc1 [Compound 1808], which MIC90 is on record?
Answer: Its MIC90 is 2 µg/mL (≈ 5.11 µM).

Question: With O=C(OC[C@H]1CN(c2ccc([N+](=O)[O-])cc2)C(=O)O1)Oc1ccc([N+](=O)[O-])cc1 [Compound 1809] as the compound, how does the MIC90 read?
Answer: Its MIC90 is 4 µg/mL (≈ 9.92 µM).

Question: For O=C1O[C@H](CNSc2ccc([N+](=O)[O-])cc2)CN1c1ccc([N+](=O)[O-])cc1 [Compound 2278], which MIC90 is on record?
Answer: The MIC90 was 2 µg/mL (≈ 5.12 µM).

test system: Staphylococcus aureus NRS4 (992; HIP5836; New Jersey); test: Broth microdilution MIC, MR SA New Jersey; format: cell-based; details: Staphylococcus aureus, NRS4, methicillin resistant SA, strain New Jersey; read-out: MIC90-100 MR SA New Jersey
Description: as §1, §2, §3, §4

Question: O=C1O[C@@H](COSc2ccc([N+](=O)[O-])cc2)CN1c1ccc([N+](=O)[O-])cc1 [Compound 1808] was tested. Which MIC90 did it give?
Answer: Its MIC90 is 4 µg/mL (≈ 10.2 µM).

Question: Which MIC90 does the source give for O=C(OC[C@H]1CN(c2ccc([N+](=O)[O-])cc2)C(=O)O1)Oc1ccc([N+](=O)[O-])cc1 [Compound 1809] here?
Answer: The MIC90 was 3 µg/mL (≈ 7.44 µM).

Question: For O=C1O[C@H](CNSc2ccc([N+](=O)[O-])cc2)CN1c1ccc([N+](=O)[O-])cc1 [Compound 2278], which MIC90 is on record?
Answer: The MIC90 was 4 µg/mL (≈ 10.2 µM).

test system: Staphylococcus aureus NRS3 (963sm; HIP5827; Michigan); test: Broth microdilution MIC, MR SA Michigan; format: cell-based; details: Staphylococcus aureus, NRS3, methicillin resistant SA, strain Michigan; read-out: MIC90-100 MR SA Michigan
Description: as §1, §2, §3, §4

Question: For O=C1O[C@@H](COSc2ccc([N+](=O)[O-])cc2)CN1c1ccc([N+](=O)[O-])cc1 [Compound 1808], which MIC90 is on record?
Answer: Its MIC90 is 3 µg/mL (≈ 7.67 µM).

Question: How did the MIC90 turn out when O=C(OC[C@H]1CN(c2ccc([N+](=O)[O-])cc2)C(=O)O1)Oc1ccc([N+](=O)[O-])cc1 [Compound 1809] was run?
Answer: The MIC90 was 3 µg/mL (≈ 7.44 µM).

Question: O=C1O[C@H](CNSc2ccc([N+](=O)[O-])cc2)CN1c1ccc([N+](=O)[O-])cc1 [Compound 2278] was tested. Which MIC90 did it give?
Answer: The MIC90 was 4 µg/mL (≈ 10.2 µM).

test system: Enterococcus faecalis (ATCC 51299); test: Broth microdilution MIC, Enterococcus faecalis ATCC 51299; format: cell-based; details: ATCC51299, read-out: MIC90-100 VS EF ATCC 51299
Description: as §1, §2, §3, §4

Question: For O=C1O[C@@H](COSc2ccc([N+](=O)[O-])cc2)CN1c1ccc([N+](=O)[O-])cc1 [Compound 1808], which MIC90 is on record?
Answer: Its MIC90 is 2 µg/mL (≈ 5.11 µM).

Question: For O=C(OC[C@H]1CN(c2ccc([N+](=O)[O-])cc2)C(=O)O1)Oc1ccc([N+](=O)[O-])cc1 [Compound 1809], which MIC90 is on record?
Answer: The MIC90 was 2 µg/mL (≈ 4.96 µM).

test system: Staphylococcus aureus (ATCC 43300); test: Broth microdilution MIC, MR SA ATCC 43300; format: cell-based; details: ATCC43300, methicillin resistant SA, read-out: MIC90-100 MR SA ATCC 43300
Description: as §1, §2, §3, §4

Question: Which MIC90 does the source give for O=C1O[C@@H](COSc2ccc([N+](=O)[O-])cc2)CN1c1ccc([N+](=O)[O-])cc1 [Compound 1808] here?
Answer: Its MIC90 is 8 µg/mL (≈ 20.4 µM).

Question: For O=C(OC[C@H]1CN(c2ccc([N+](=O)[O-])cc2)C(=O)O1)Oc1ccc([N+](=O)[O-])cc1 [Compound 1809], which MIC90 is on record?
Answer: The MIC90 was 4 µg/mL (≈ 9.92 µM).

test system: Staphylococcus aureus NRS102 (Reynolds); test: Broth microdilution MIC, Pen. R SA Reynolds; format: cell-based; details: strain Reynolds, read-out: MIC90-100 Pen. R SA Reynolds
Description: as §1, §2, §3, §4

Question: How did the MIC90 turn out when O=C1O[C@@H](COSc2ccc([N+](=O)[O-])cc2)CN1c1ccc([N+](=O)[O-])cc1 [Compound 1808] was run?
Answer: The MIC90 was 16 µg/mL (≈ 40.9 µM).

Question: How did the MIC90 turn out when O=C(OC[C@H]1CN(c2ccc([N+](=O)[O-])cc2)C(=O)O1)Oc1ccc([N+](=O)[O-])cc1 [Compound 1809] was run?
Answer: Its MIC90 is 8 µg/mL (≈ 19.8 µM).

Question: How did the MIC90 turn out when O=C1O[C@H](CNSc2ccc([N+](=O)[O-])cc2)CN1c1ccc([N+](=O)[O-])cc1 [Compound 2278] was run?
Answer: Its MIC90 is 8 µg/mL (≈ 20.5 µM).

test system: Staphylococcus aureus NRS103 (Becker); test: Broth microdilution MIC, Ref SA Becker; format: cell-based; details: strain Becker, read-out: MIC90-100 Ref SA Becker
Description: as §1, §2, §3, §4

Question: With O=C1O[C@@H](COSc2ccc([N+](=O)[O-])cc2)CN1c1ccc([N+](=O)[O-])cc1 [Compound 1808] as the compound, how does the MIC90 read?
Answer: The MIC90 was 16 µg/mL (≈ 40.9 µM).

Question: Which MIC90 does the source give for O=C(OC[C@H]1CN(c2ccc([N+](=O)[O-])cc2)C(=O)O1)Oc1ccc([N+](=O)[O-])cc1 [Compound 1809] here?
Answer: Its MIC90 is 4 µg/mL (≈ 9.92 µM).

Question: How did the MIC90 turn out when O=C1O[C@H](CNSc2ccc([N+](=O)[O-])cc2)CN1c1ccc([N+](=O)[O-])cc1 [Compound 2278] was run?
Answer: The MIC90 was 8 µg/mL (≈ 20.5 µM).
